Experimental data taken from publication PMC9517990 (Communications Biology, 2022).

Experiments:
[1] = system: A/South Korea/90207/2020 PA-I38T virus; type: cell-based, influenza A(H1N1)pdm09 virus
[2] = system: A/South Korea/90207/2020 NA-H275Y + PA-I38T virus; type: cell-based, influenza A(H1N1)pdm09 virus
[3] = system: A/South Korea/90207/2020 NA-H275Y virus; type: cell-based, influenza A(H1N1)pdm09 virus
[4] = target: neuraminidase of A/South Korea/90207/2020 NA-H275Y + PA-I38T virus (Influenza A virus (A(H1N1)pdm09), UniProt A0A0X9QTS2, H275Y); type: biochemical
[5] = target: neuraminidase of A/South Korea/90207/2020 NA-H275Y virus (Influenza A virus (A(H1N1)pdm09), UniProt A0A0X9QTS2, H275Y); type: biochemical
[6] = target: neuraminidase of A/South Korea/90207/2020 PA-I38T virus (Influenza A virus (A(H1N1)pdm09), UniProt A0A0X9QTS2); type: biochemical
[7] = read-out: EC50 nM ± SD (column headed IC50; footnote: EC50)

| SMILES | EC50 fold change compared to WT [1] [fold] | EC50 [1, 7] [nM] | EC50 fold change compared to WT [2] [fold] | EC50 [2, 7] [nM] | EC50 fold change compared to WT [3] [fold] | EC50 [3, 7] [nM] | IC50 [4] [nM] | IC50 [5] [nM] | IC50 [6] [nM] | IC50 fold change compared to WT [6] [fold] |
| --- | --- | --- | --- | --- | --- | --- | --- | --- | --- | --- |
| O=C1c2c(O)c(=O)ccn2N([C@@H]2c3ccccc3SCc3c2ccc(F)c3F)[C@@H]2COCCN12 [Baloxavir, Baloxavir acid] | 373 | 380 | 190 | 194 | 1 | 1.2 ± 0.3 | – | – | – | – |
| CCC(CC)[C@H](NC(C)=O)[C@@H]1[C@H](O)[C@@H](C(=O)O)C[C@H]1N=C(N)N [Peramivir, peramivir] | – | – | – | – | – | – | 16.2 | 16.8 ± 3.1 | 0.26 | 2 |
